Laboratory results reported in patent publication US9777069B2, “Compositions and methods for detection of methadone metabolite” (Siemens Healthcare Diagnostics Inc., priority 2012, dated 2017).

Test system: anti-EDDP antibody
Assay: Assay for EDDP analyte: homogeneous enzyme immunoassay with G6PDH-product of Step 14-SH-Step 14 conjugate, absorbance at 340 nm
Format: binding
Conditions: 1 min after enzyme conjugate addition, Tris buffer pH 7.8
Method: The experiments were conducted on an AGILENT® 8453 UV spectrophotometer (Agilent Technologies, Santa Clara Calif.). Typically, 2.5 mL Tris buffer (50 mM, containing 3.3 mM MgCl2, pH 7.8), 0.2 ml anti-EDDP antibody (1 mg/mL, commercially available from Lin Zhi International Inc. Sunnyvale Calif.), 0.1 mL glucose-6-phosphate (0.1 M), 0.1 mL NADP (0.006M) were taken in a quartz cuvette. To this, 0-4029 ng/mL EDDP in 10 μL methanol was added and mixed well. Then, 10 μL G6PDH-product of Step 14-SH-Step 14 (1 mg/mL) was added and mixed well. Increase in the absorbance at 340 nm was monitored at 1 min after the enzyme addition.

CC=C1N(C)C(C)CC1(c1ccccc1)c1ccccc1 (stereo not drawn) [EDDP, 2-ethylidene-1,5-dimethyl-3,3-diphenylpyrrolidine]
mAu 340 nm (increase in the absorbance at 340 nm) (EDDP 370 ng/mL): 456 mAu
mAu 340 nm (increase in the absorbance at 340 nm) (EDDP 1221 ng/mL): 497 mAu
mAu 340 nm (increase in the absorbance at 340 nm) (EDDP 4029 ng/mL): 561 mAu
